Like-named read-outs stand apart in the source and are kept apart here. Each block holds one compound with its values, some of them ahead of it.
What was measured:
[1] = Response to β-FeO(OH): dissolution of this rust; conditions: in words
[2] = orientating LD50-toxicity test on white mice after intravenous injection; conditions: mouse, in vivo
From the text: (§1) all-cis-1,3,5-Triamino-2,4,6-cyclohexanetriol (10), all-cis-1,3,5-tris-(dimethylamino)-2,4,6-cyclohexane triol hydrochloride (12a), all-cis-1,3,5-tris-(trimethylammonio)-2,4,6-[…] (19c) and all-cis-1,3,5-tris-(succinoylamino)-2,4,6-cyclohexanetriol are found to have the following values in mg/kg of body weight in the orientating LD50 -toxicity test on white mice after intravenous injection: 158, 440, 235 and >1000. The elimination of iron from rats with an excessively high iron level by excretion in the urine and faeces after intravenous administration is shown in the following Table by comparison with the figures obtained with Desferal. The rates of excretion were measured over 72 hours after application.

[3] = test system: rats with an excessively high iron level; test: elimination of iron from rats with an excessively high iron level by excretion in urine and faeces after intravenous administration; format: in vivo; conditions: over 72 hours, by comparison with Desferal (= 1)
From the text: as §1

[4] = general statement on toxicity
pK-values (approximate) = format: physicochemical
[5] = Response to iron(III): keeping iron(III) in solution by complex formation; format: physicochemical
Solubility = format: physicochemical
[6] = parenteral; cited from earlier work
[7] = cited from earlier work
[8] = white mice, intravenous injection, orientating test, read-out: LD50
[9] = pK2, second lowest value of the list
[10] = pK3, third lowest value of the list
[11] = pK4, fourth lowest value of the list
[12] = pK5, fifth lowest value of the list
[13] = pK6, sixth lowest value of the list

SMILES: CCCCN(CC(=O)O)[C@H]1[C@@H](O)[C@@H](N(CCCC)CC(=O)O)[C@@H](O)[C@@H](N(CCCC)CC(=O)O)[C@H]1O [Example 15, all-cis-1,3,5-(N-butylammonioacetic acid)-2,4,6-cyclohexanetriol trichloride]
Response to β-FeO(OH) [1]: Identical to Examples 13 and 14

SMILES: N[C@H]1[C@@H](O)[C@@H](N)[C@@H](O)[C@@H](N)[C@H]1O [Example 10, all-cis-1,3,5-Triamino-2,4,6-cyclohexanetriol]
LD50 [2, 8]: 158 mg/kg
elimination of iron by excretion in the faeces [3]: 0.2
elimination of iron by excretion in the urine [3]: 0.1
toxicity [4]: relatively low toxicity

SMILES: CN(C)[C@H]1[C@@H](O)[C@@H](N(C)C)[C@@H](O)[C@@H](N(C)C)[C@H]1O [Example 12a, all-cis-1,3,5-Tris-(dimethylammonio)-2,4,6-cyclohexanetriol trichloride dihydrate]
LD50 ([2]; iv): 440 mg/kg
elimination of iron by excretion in the faeces [3]: 0.5
elimination of iron by excretion in the urine [3]: 1

SMILES: C[N+](C)(C)[C@H]1[C@@H](O)[C@@H]([N+](C)(C)C)[C@@H](O)[C@@H]([N+](C)(C)C)[C@H]1O [Example 19c]
LD50 [2, 8]: 235 mg/kg
elimination of iron by excretion in the faeces [3]: 0.5
elimination of iron by excretion in the urine [3]: 0.2

pKa (pK-values (approximate); pK1, lowest value of the list): ~6.2
pKa (pK-values (approximate); [9]): ~8.2
pKa (pK-values (approximate); [10]): ~9.7
solubility of the iron complex ([5]; pH 3 to 6): relatively sparingly soluble
SMILES: O=C(O)CCN[C@H]1[C@@H](O)[C@@H](NCCC(=O)O)[C@@H](O)[C@@H](NCCC(=O)O)[C@H]1O [Example 12]
pH range in which a solution containing Fe(III) and ligand is clear ([5]; Fe(III):ligand=1:1, result in words): clear over the entire ranges of pH
maximum Fe(III) kept in solution per ligand ([5]; pH 7.5): ≤ 2 Fe(III) per ligand

pKa (pK-values (approximate); pK1, lowest value of the list): ~5.2
pKa (pK-values (approximate); [9]): ~6
pKa (pK-values (approximate); [10]): ~6.5
pKa (pK-values (approximate); [11]): ~7
pKa (pK-values (approximate); [12]): ~8
pKa (pK-values (approximate); [13]): ~9.5
SMILES: O=P(O)(O)CN[C@H]1[C@@H](O)[C@@H](NCP(=O)(O)O)[C@@H](O)[C@@H](NCP(=O)(O)O)[C@H]1O [Example 11, all-cis-1,3,5-Tris-(ammoniomethanephosphonic acid)-2,4,6-cyclohexanetriol trichloride]

SMILES: O=C(O)CCC(=O)N[C@H]1[C@@H](O)[C@@H](NC(=O)CCC(=O)O)[C@@H](O)[C@@H](NC(=O)CCC(=O)O)[C@H]1O [Example 16, all-cis-1,3,5a-tris-(succinoylamino)-2,4,6-cyclohexanetriol]
Solubility (Solubility; cyclohexane): sparingly
Solubility (Solubility; water): Readily
Solubility (Solubility; water/EtOH): Readily
Solubility (Solubility; water/MeOH): Readily
LD50 [2, 8]: > 1000 mg/kg

SMILES: CN(C)[C@H]1[C@@H](O)[C@@H](N(C)C)[C@@H](O)[C@@H](N(C)C)[C@H]1O [Example 12b, all-cis-1,3,5-Tris-(dimethylammonio)-2,4,6-cyclohexanetriol sulphate]
solubility in boiling methanol (Solubility; boiling methanol): virtually insoluble

pKa (pK-values (approximate); pK1, lowest value of the list): ~3
pKa (pK-values (approximate); [9]): ~4.5
pKa (pK-values (approximate); [10]): ~6.3
SMILES: N#CCCN[C@H]1[C@@H](O)[C@@H](NCCC#N)[C@@H](O)[C@@H](NCCC#N)[C@H]1O [all-cis-1,3,5-tris-(2'-aminopropionitrile)-2,4,6-cyclohexanetriol]

pKa (pK-values (approximate); highest pK of nitrile intermediate): ~6.5
pKa (pK-values (approximate); next lowest pK of nitrile intermediate): ~3
SMILES: N#CCN[C@H]1[C@@H](O)[C@@H](NCC#N)[C@@H](O)[C@@H](NCC#N)[C@H]1O [all-cis-1,3,5-tris-(aminoacetic acid nitrile)-2,4,6-cyclohexanetriol]

pKa (pK-values (approximate); [11]): ~5.7
pKa (pK-values (approximate); [12]): ~7.8
pKa (pK-values (approximate); [13]): ~8.9
pKa (pK-values (approximate); three lowest pK-values): < 3
SMILES: O=C(O)CN[C@H]1[C@@H](O)[C@@H](NCC(=O)O)[C@@H](O)[C@@H](NCC(=O)O)[C@H]1O [Example 13, all-cis-1,3,5-Tris-(ammonioacetic acid)-2,4,6-cyclohexanetriol trichloride]
precipitation of iron hydroxide ([5]; ligand:iron ratio of 1:1, pH higher than about 11): Iron hydroxide precipitates

SMILES: CC(=O)N(O)CCCCCNC(=O)CCC(=O)N(O)CCCCCNC(=O)CCC(=O)N(O)CCCCCN [Desferal, 30-amino-3,14,25-trihydroxy-3,9,14,20,25-pentaaza-2,10,13,21,24-triacontane-pentanone-methane sulphonate, reference compound]
elimination of iron by excretion in the faeces [3]: 1
elimination of iron by excretion in the urine [3]: 1
half life in the body [6]: very short
serious side effects after prolonged administration [7]: visual disturbances
